Reference: patent publication US8834870B2, “Treatment of leukemias and chronic myeloproliferative diseases with antibodies to EphA3” (Kalobios Pharmaceuticals, Inc., priority 2009, dated 2014)

Experiments:
[1] = test system: bone marrow cells from AML patients; experiment: Apoptosis induction (Annexin V flow cytometry), AML primary cells; format: cell-based, human; conditions: camptothecin 10 μM positive control, 24 hours
Procedure: An engineered human activating antibody that binds to EphA3 was evaluated for the ability to induce apoptosis in vitro in primary cells isolated from patients or individuals suffering from myeloproliferative disorders. Cells were seeded at 2.5×10^5 cells/well in 96-well “U”-bottom plates in 0.1 ml culture medium (RPMI 1640 with 10% fetal bovine serum). Anti-EphA3 antibody or human IgG1 isotype control antibody was added to final concentrations between 10 μg/ml and 1 ng/ml and the plates were incubated at 37° C. and 5% carbon dioxide in a tissue-culture incubator for 24 hours. As a positive control for apoptosis induction, separate cell samples were incubated with camptothecin (10 μM; Calbiochem). […]
In these samples, in each case in which CD123^+CD34^+CD38^− leukemic stem cells (LSC) could be identified, 100% of these LSC were also positive for EphA3 expression. In the majority of samples, there is good correlation between the percent of cells killed either by ADCC or apoptosis mediated by an engineered human anti-EphA3 antibody and the proportion of cells detected as positive for EphA3 by flow cytometry, indicating specificity of the antibody for EphA3-expressing cells.

[2] = test system: peripheral blood cells from polycythemia vera (PV) patient; experiment: Apoptosis induction (Annexin V flow cytometry), PV primary cells; format: cell-based, human; conditions: sample PB-2, PV; camptothecin 10 μM positive control; 24 hours
Procedure: (§1) An engineered human activating antibody that binds to EphA3 was evaluated for the ability to induce apoptosis in vitro in primary cells isolated from patients or individuals suffering from myeloproliferative disorders. Cells were seeded at 2.5×10^5 cells/well in 96-well “U”-bottom plates in 0.1 ml culture medium (RPMI 1640 with 10% fetal bovine serum). Anti-EphA3 antibody or human IgG1 isotype control antibody was added to final concentrations between 10 μg/ml and 1 ng/ml and the plates were incubated at 37° C. and 5% carbon dioxide in a tissue-culture incubator for 24 hours. As a positive control for apoptosis induction, separate cell samples were incubated with camptothecin (10 μM; Calbiochem). At the end of the incubation, cells were harvested and washed by centrifugation at 1000 rpm for 5 min followed by incubation in 0.1 ml of 1× Annexin V binding buffer (BD Pharmingen, Cat #556547, component no. 51-66121E) containing 5 μl FITC-conjugated Annexin V (BD Pharmingen, component no. 51-65874×) and 5 μl Propidium Iodide (component no. 51-66211E) for 15 minutes at room temperature in the dark. Four hundred μl of 1× binding buffer was added to each tube and annexin V-staining apoptotic cells were identified by flow cytometry. FIG. 4 provides data showing apoptosis activity of a human engineered antibody.

[3] = test system: peripheral blood cells from essential thrombocythemia (ET) patient; experiment: Apoptosis induction (Annexin V flow cytometry), ET primary cells; format: cell-based, human; conditions: sample PB-1, ET; camptothecin 10 μM positive control; 24 hours
Procedure: as §1

[4] = target: EphA3 antigen (UniProt P29320); experiment: ELISA on EphA3 antigen
Sequence of UniProt P29320 (P29320 21-541 limits assumed): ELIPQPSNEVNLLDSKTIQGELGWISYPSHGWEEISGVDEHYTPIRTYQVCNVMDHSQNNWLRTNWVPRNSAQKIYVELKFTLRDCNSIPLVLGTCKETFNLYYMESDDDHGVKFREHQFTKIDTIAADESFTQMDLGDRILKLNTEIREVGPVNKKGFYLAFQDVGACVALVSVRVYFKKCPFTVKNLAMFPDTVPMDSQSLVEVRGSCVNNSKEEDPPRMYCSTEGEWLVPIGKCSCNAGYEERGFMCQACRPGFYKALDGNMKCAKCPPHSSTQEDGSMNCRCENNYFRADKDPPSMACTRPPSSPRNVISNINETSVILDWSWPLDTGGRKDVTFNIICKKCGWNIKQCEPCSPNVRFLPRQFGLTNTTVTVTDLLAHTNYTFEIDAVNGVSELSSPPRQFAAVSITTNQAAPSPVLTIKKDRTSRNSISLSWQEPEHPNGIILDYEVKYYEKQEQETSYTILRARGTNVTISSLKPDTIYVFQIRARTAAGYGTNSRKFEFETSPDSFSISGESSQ

AFFINITY [4] [nM]	Compound	Camptothecin-mediated apoptosis (% cell death) ([1]; sample BM, 06, AML) [%]	Camptothecin-mediated apoptosis (% cell death) ([1]; sample BM, 07, AML) [%]	Camptothecin-mediated apoptosis (% cell death) [2] [%]	Camptothecin-mediated apoptosis (% cell death) [3] [%]
–	CC[C@@]1(O)C(=O)OCc2c1cc1n(c2=O)Cc2cc3ccccc3nc2-1 [Camptothecin, camptothecin]	59.8	47.8	73.2	78
2.5	monoclonal antibody IIIA4	–	–	–	–
